A value given as a limit tells only on which side of the number the result lay.

As usually defined, the melting point is the temperature of the solid-liquid transition. On to `COC1=CC(Cl)(OC)NC(C(=O)CC(=O)Nc2ccccc2)=N1` (stereo unspecified), for which the melting point was in the range of 142 to 144 °C.

In the case of `COC(=O)C(Cl)C(Cl)c1ccccc1` (stereo unspecified), the melting point is 164 to 165 °C.

The compound `CCCCc1nc(C(C)=O)c(C#N)[nH]1` yielded a melting point of 77 to 78 °C.

Consider `O=c1c(-c2nnn[nH]2)cnc2c(Cl)cccn12`, for which the melting point was 313 to 315 °C.

Compound `COc1cc2c(Nc3ccc(Cl)cc3F)ncnc2cc1OCCSC` had a melting point of 174 to 176 °C.

For the compound `CCCc1c(OCCCCOCCCCOc2c(C(C)=O)ccc(OCC(=O)O)c2CCC)ccc(C(C)=O)c1O`, the melting point is 68 to 71 °C.

In the case of `Cc1ccc2c(c1)SC1(CCOC1=O)C2=O` (stereo unspecified), the melting point was 122 to 124 °C.

Consider `Cc1c(C)c2c(c(C)c1O)CCC(C)(CC(=O)N(C)C)O2` (stereo unspecified), for which the melting point was 142 °C.

`CNC1CCN(C(=O)CC2=C(n3nc(-c4c(-c5ccccc5)nn5ccccc45)ccc3=O)CCCC2)CC1` displayed a melting point of 101 to 105 °C.

`CCCCCS(=O)(=O)NC(=O)/C=C/c1cc(OC2CCOCC2)nn1Cc1ccc(C(F)(F)F)cc1Cl` returned a melting point of 160 to 161 °C.

`CC(=O)N1C(=O)N(c2ccc(C#N)c(C(F)(F)F)c2)C(=O)C1(C)C`: the melting point is 129 to 130 °C.

`COc1ccc(-c2coc3cc(OCc4ccccc4)ccc3c2=O)cc1` had a melting point of 181 to 183 °C.

`Cn1nnnc1-c1cn(C)c2cc(Br)ccc2c1=O` showed a melting point of 292 to 294 °C.

For the compound `CC(C)Cc1nccc2c(CC(=O)O)cccc12`, the melting point is 152 °C.

As to `CCCCCCCCCCCC(=O)N[C@H](CC(=O)c1ccc2ccccc2c1)C(=O)OCC`, the melting point was 75 to 76 °C.

`CCC(CC)C(=O)OCOC(=O)C1=C(S[C@H]2CC[S@@](=O)C2)S[C@@H]2[C@@H]([C@@H](C)O)C(=O)N12` had a melting point of 105 °C.

For `CC(C)(C)NC(=O)[C@@H]1C[C@@H]2CCCC[C@@H]2CN1C[C@@H](O)[C@H](Cc1ccccc1)NC(=O)[C@@H](Nc1nc(CO)cs1)C(C)(C)S(C)(=O)=O`, the melting point came out at 126 °C.

In the case of `Nc1nc(Cl)c2ncn(COCCOC(=O)c3ccccc3)c2n1`, the melting point fell in the range of 130 to 134 °C.

`COc1ccc2ncn(/C=C/C(=O)O)c(=O)c2c1`: the melting point was in the range of 298 to 299 °C.

Compound `CSc1cc(Oc2cccc(C(F)(F)F)c2)nc(C(=O)NC(C)C)c1` came in with a melting point of 66 to 69 °C.

Consider `CC1CC(=O)NN=C1c1ccc(N2CCN(C(=O)NCCCc3c[nH]cn3)CC2)c([N+](=O)[O-])c1` (stereo unspecified), for which the melting point was found to be 182 °C.

`O=C(O)c1n[nH]c2ncccc12` gave a melting point of 175 to 176 °C.

Turning to `CCCC1CCC(C)C(CCC2CC(O)CC(=O)O2)C1COC(=O)C(C)(C)CC` (stereo unspecified), the melting point was in the range of 128 to 130 °C.

Turning to `CCCCCCCCCCOc1ccccc1-c1nc(N)c(N=O)c(=O)[nH]1`, the melting point is 144 to 146 °C.

With `CCOc1cnc(C)c(S(=O)(=O)c2ccc(OCc3ccccc3)cc2)c1`, the melting point lay within 133 to 134 °C.

The compound `COC[C@H]1CCCN1NC(=O)Nc1cccc2c1C(=O)c1c-2n[nH]c1-c1ccc(C(=O)N2CCN(C(=O)OC(C)(C)C)CC2)s1` gave a melting point of more than 300 °C.

On to `CNc1nc(Cl)c(Cl)c(N2CCN(C(=O)OC(C)(C)C)CC2)n1`, for which the melting point lay within 129 to 131 °C.

Take `CC[C@@H](NC(=O)N1CC(=O)NCC(Cc2cc(Cl)ccc2OC)C1=O)C(=O)Nc1ccc(C)c(C(=O)O)c1` (stereo partly specified): the melting point fell in the range of 132 to 134 °C.

For `CC1(C2CCC3C4CCC5CC=CCC5(C)C4C(=O)CC32C)OCCO1` (stereo unspecified), the melting point was in the range of 130 to 135 °C.

Compound `Cc1cnc(C#N)c(Cl)n1` displayed a melting point of 63 to 65 °C.

`COc1ccc(C(=O)[C@H]2CC=CC[C@H]2C(=O)O)cc1F` (relative stereo) came in with a melting point of 185 to 187 °C.

For `COCCCn1c(O)nc2ccc(C)cc21`, the melting point was in the range of 118 to 120 °C.

As to `CCc1cccc(C)c1NC(=O)C(C)Br` (stereo unspecified), the melting point lay in the range of 181 to 182 °C.

As for `O=C1C[C@@H]2O[C@@H](CS(=O)(=O)Cc3ccccc3)CN12` (racemic), the melting point was 137 to 145 °C.

The compound `CCC1(CC(=O)O)CCCc2c1n(C)c1ccccc21` (stereo unspecified) had a melting point of 140 to 143 °C.

In turn, `Cc1ccc(Cn2c(=O)c3c(Cl)cc(Cl)cc3n(Cc3ccccc3)c2=O)cc1C` came in with a melting point of 126 to 132 °C.

As for `CN(C)CCOc1cnc(Nc2cc(-c3cccc(-n4ncc5cc(C(C)(C)C)cc(F)c5c4=O)c3CO)nn(C)c2=O)cn1`, the melting point fell in the range of 185 to 190 °C.

Take `Cc1cc(CNC(=O)c2nc3scc(COCc4ccc(C(=O)O)cc4)c3c(=O)[nH]2)ccc1F`: the melting point was 246 to 248 °C.

As for `CCN(CC)c1ccc(N(c2ccc(N(CC)CC)cc2)C2(c3ccc(N(C)C)cc3C)OC(=O)c3ccccc32)cc1` (stereo unspecified), the melting point lay in the range of 59 to 72 °C.

In the case of `O=C(NCc1ccccn1)Nc1cc(N2CC(Cc3ccccc3)OC2=O)ccn1` (stereo unspecified), the melting point was 191 to 193 °C.

In the case of `O=C(O)CCCc1cc2nc(Cl)ccc2n1S(=O)(=O)c1ccc(OC(F)(F)F)cc1`, the melting point came out at 168 °C.

Regarding `O=C(Nc1n[nH]c(=S)s1)NC(Cc1ccccc1)C(=O)NCc1ccc(C(F)(F)F)cc1` (stereo unspecified), the melting point lay within 217 to 218 °C.

Compound `O=C(NCc1ccc2c(c1)OCO2)c1ccccc1` registered a melting point of 115 to 116 °C.

The compound `NC(=O)N(O)C[C@H]1C[C@@H](c2ccccc2)C1` gave a melting point of 100 °C.

`COC(=O)C1=C(C)NC2=C(C(=O)OC2)C1c1cccc2nc(-c3ccccc3)sc12` (stereo unspecified) had a melting point of 275 °C.

As for `O=C(O)CSc1nc(-c2ccccc2)ns1`, the melting point was 97 °C.

Compound `CN(C)C1(c2ccccc2)CCC2(OCCc3c2[nH]c2ccccc32)C(F)C1` (stereo unspecified) displayed a melting point of 245 to 247 °C.

The compound `Cc1cc(C(=O)N2CCC3(CC2)CSC2=C(O3)c3ccccc3C(=O)C2=O)n(C)n1` returned a melting point of 244 to 245 °C.

Turning to `Cc1cc(=O)n2cccc(SC(=O)N(C)C)c2n1`, the melting point lay in the range of 165 to 167 °C.

As to `CCCCOCC(=O)NNC(=O)N1Cc2ccccc2Oc2ccc(Cl)cc21`, the melting point was 93 to 97 °C.

The compound `CC(C)=Cn1ncc(OCc2ccc(I)nc2)c(Cl)c1=O` gave a melting point of 141 to 142 °C.

`Nc1cc(C=O)nc(C2CCCO2)c1F` (stereo unspecified): the melting point fell in the range of 122 to 123 °C.

In turn, `CC1(Br)CCc2cc3c(cc2C1=O)CCO3` (stereo unspecified) yielded a melting point of 95 to 98 °C.

Take `COC(=O)Nc1nccc(Oc2ccc3c(C(=O)Nc4ccc(CN5CCN(C)CC5)c(C(F)(F)F)c4)csc3c2)n1`: the melting point was 205 to 206 °C.

With `Cc1ccc2c(=O)n(C3CCC(=O)NC3=O)cnc2c1` (stereo unspecified), the melting point lay within 313 to 315 °C.

The compound `COc1cc(OC)nc(C(C)(C#N)c2cccc(Cl)c2)n1` (stereo unspecified) displayed a melting point of 89 to 93 °C.

Consider `CC(C)(C)OC(=O)N1CCc2c(n(CCO)c3cc(Cl)c(Cl)cc23)CC1`, for which the melting point lay in the range of 130 to 133 °C.

For the compound `CC(C)(C)c1ccc(C(=O)Nc2cn3nc(NC4CCCCC4)ccc3n2)cc1`, the melting point fell in the range of 296 to 297 °C.

As for `O=CC(c1ccccc1)c1nc(-c2ccncc2)cs1` (stereo unspecified), the melting point is 163 to 164 °C.

Consider `N#CC1=Cc2ccc(OCc3ccccc3)cc2OC1`, for which the melting point fell in the range of 108 to 109 °C.

With `CC(C)n1c(=O)nc(-c2ccc3ccccc3c2)c2cc3c(cc21)OCO3`, the melting point is 213 to 215 °C.

`CCOC(=O)Cc1nn(CC2Nc3cc(C(F)(F)F)ccc3S2)c(=O)c2ccccc12` (stereo unspecified) had a melting point of 134 °C.

`COC(=O)c1ccc(OCCCOc2c(C)c(C)c(C(=O)Oc3c(C)c(C)c(C(N)=O)c(OC)c3C)c(OC)c2C)cc1` returned a melting point of 202 to 204 °C.

Regarding `CN(C)c1ccncc1CCCOc1ccc(OCCCC(=O)O)cc1`, the melting point is 106 to 108 °C.

`Cc1c(F)c(F)c(F)c2c1c(=O)c(C(=O)O)cn2C1CC1`: the melting point was in the range of 234 to 235 °C.

`COc1ccc(C2CCN(C)CC2)cc1Nc1ncc2ccc(-c3ccccc3OC)n2n1`: the melting point lay within 64 to 69 °C.

Compound `Cc1cccc(-c2ccc(C(=O)N3Cc4cccn4Cc4ccccc43)cc2)c1` yielded a melting point of 128 to 130 °C.

`O=C(O)c1ccc(C#Cc2ccccc2)cc1OCc1ccccc1` registered a melting point of 125 to 127 °C.

In the case of `Cn1nc(Cl)c(Cl)c1S(=O)(=O)CCCl`, the melting point was in the range of 56 to 59 °C.

Regarding `Cc1cccc(COc2nn3c(-c4ccccc4)nnc3cc2C23CCC(CC2)C3)n1`, the melting point fell in the range of 162 to 164 °C.

`Cc1c(-c2cccnc2)n(CCCC=CC(=O)O)c2ccccc12` displayed a melting point of 145 to 147 °C.

As to `Cc1ccc(S(=O)(=O)n2cc(C=O)c3ccc(C(=O)Nc4c(Cl)cncc4Cl)cc32)cc1`, the melting point came to 245 °C.

`Cc1ccc(S(=O)(=O)OCC(C)(C)CS(N)(=O)=O)cc1` yielded a melting point of 59 to 61 °C.

`CC(C)(O)Cn1cnc2c(N)nc3ccc(Br)cc3c21` displayed a melting point of 197 to 198 °C.

The compound `COc1ccc2c(c1)c(S(=O)(=O)c1ccccc1)cn2CCNCc1ccccc1` displayed a melting point of 98 to 99 °C.

On to `CN(CCCc1ccccc1)[C@H]1CC[C@H](c2ccc(O)cc2)CC1`, for which the melting point lay in the range of 156 to 158 °C.

The compound `CN1C(=O)CCC1(O)c1ccc(Cl)c(S(=O)(=O)NCc2ccccc2Cl)c1` (stereo unspecified) yielded a melting point of 144 to 145 °C.

Compound `O=C(O)COc1cccc2c1CCc1sc(S(=O)(=O)CCCC(c3ccccc3)c3ccccc3)nc1-2` came in with a melting point of 180 to 181 °C.

Consider `COCc1nnc(-c2cccnc2)n1-c1c(Cl)c(C)cc2[nH]c(=O)c(=O)[nH]c12`, for which the melting point lay in the range of 229 to 231 °C.

`O=C1NC(=S)SC1=Cc1ccc(COc2ccccc2CCc2ccccc2)cc1`: the melting point is 162 to 163 °C.

Turning to `C=C(C)Cc1c(C)c(OC(C)=O)c(C)c(C)c1O`, the melting point lay within 109 to 110 °C.

`CCCn1nc2c(N)nc3ncccc3c2c1CC` registered a melting point of 303 to 305 °C.

As for `CCCCCc1c(/C=C/C(=O)Oc2ccc([N+](=O)[O-])cc2)sc2cc(OC)ccc12`, the melting point lay in the range of 111 to 113 °C.

`CCc1cccc(C=CC(=O)CCCc2ccccc2)c1NC(=O)CC1c2ccccc2Oc2ccccc21` registered a melting point of 168 to 170 °C.

`CN(C)C1(c2ccccc2)CCC(CNC(=O)N2CCC(c3c[nH]c4ccccc34)C2)CC1` (stereo unspecified): the melting point fell in the range of 103 to 106 °C.

Regarding `CCOC(=O)c1nnc(-c2ccccc2)cc1-c1cccc([N+](=O)[O-])c1`, the melting point lay in the range of 121 to 122 °C.

(Values after a melting point compilation (Tetko et al.; mined from patent text by program, amines drawn as free bases though some values may be those of a salt).)
